Measurements: article PMC7854510 (Molecular microbiology, 2020)

Molecular target: T1, rLacR (UA159) (Streptococcus mutans, UniProt P26422)
T1 sequence (P26422 1-251): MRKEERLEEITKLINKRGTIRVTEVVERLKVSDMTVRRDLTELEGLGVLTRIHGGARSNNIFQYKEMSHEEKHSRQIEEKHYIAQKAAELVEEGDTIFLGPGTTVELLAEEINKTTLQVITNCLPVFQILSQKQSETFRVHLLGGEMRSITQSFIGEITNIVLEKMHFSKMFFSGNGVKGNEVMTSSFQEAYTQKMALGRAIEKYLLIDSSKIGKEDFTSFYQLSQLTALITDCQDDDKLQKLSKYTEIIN
Experiment: DNase I footprinting by capillary electrophoresis
Type: binding
Conditions: 5 mM; fluorescent UA159 lacA probe

O=P(O)(O)OC[C@H]1OC(O)[C@H](O)[C@@H](O)[C@H]1O (stereo partly shown) [Gal-6-P]
DNase I footprinting by capillary electrophoresis (DFACE): addition of Gal-6-P resulted in the appearance of a DNase I hyper-sensitive site
